Values quoted from earlier work, collected in US20210000972A1, “NANOPARTICLES FOR SUSTAINED OPHTHALMIC DRUG DELIVERY AND METHODS OF USE” (2C TECH CORP., priority 2017, published 2021).
Where two headings read alike, the source gives them in different places.

Compound: C[C@@H]1C[C@H]2[C@@H]3CCC4=CC(=O)C=C[C@]4(C)[C@@]3(F)[C@@H](O)C[C@]2(C)[C@@]1(O)C(=O)CO [dexamethasone]
- duration of constant concentration (sustained release form (embedded in a lactic co-glycolic copolymer)): one

Compound: O=C(O)P(=O)(O)O [foscarnet]
- half-life (intravitreal): 12 h

Compound: CC1(C)O[C@@H]2C[C@H]3[C@@H]4CCC5=CC(=O)C=C[C@]5(C)[C@@]4(F)[C@@H](O)C[C@]3(C)[C@]2(C(=O)CO)O1 [triamcinolone acetonide]
- half-life (intravitreal suspension, 4 mg): 576 h
- time the drug lasted (intravitreal suspension, the two doses administered (4 mg and 16 mg)): 4 to 6 months

Compound: Avastin: an antibody used for the treatment of macular edema
- half-life (intravitreal antibody): 140 h
- time detectable (intravitreal antibody): > 30 days
- systemic delivery after intravitreal administration (untreated contralateral eye): found in the untreated contralateral eye
